From ChEMBL document CHEMBL5346903, “Discovery of novel and bioavailable histone deacetylases and cyclin-dependent kinases dual inhibitor to impair the stemness of leukemia cells” (Eur J Med Chem, 2023)

Experiments:
HL-60 = experiment: Antiproliferative activity against human HL-60 cells incubated for 72 hrs by CCK8 assay; assay type: functional, cell-based; conditions: HL-60, 72 h
U-937 = experiment: Antiproliferative activity against human U-937 cells incubated for 72 hrs by CCK8 assay; assay type: functional, cell-based; conditions: U-937, 72 h
[1] = Antiproliferative activity against human SKNO-1 cells incubated for 72 hrs by CCK8 assay; assay type: functional, cell-based; conditions: SKNO-1, 72 h
Kasumi 1 = experiment: Antiproliferative activity against human Kasumi 1 cells incubated for 72 hrs by CCK8 assay; assay type: functional, cell-based; conditions: Kasumi 1, 72 h
[2] = molecular target: Cyclin-dependent kinase 9 (Homo sapiens, UniProt P50750); experiment: Inhibition of CDK9 (unknown origin) preincubated for 20 mins followed by [gamma-33P]ATP addition measured after 120 mins in presence of ATP by Hot-SpotSM kinase assay
Histone deacetylase = experiment: Inhibition of HDAC in human nuclear extract using Ac-Arg-Gly-Lys(Ac)-AMC as substrate incubated overnight by fluorescence based assay; assay type: subcellular, Nucleus; conditions: hela

Sequence of Cyclin-dependent kinase 9 (P50750 whole entry): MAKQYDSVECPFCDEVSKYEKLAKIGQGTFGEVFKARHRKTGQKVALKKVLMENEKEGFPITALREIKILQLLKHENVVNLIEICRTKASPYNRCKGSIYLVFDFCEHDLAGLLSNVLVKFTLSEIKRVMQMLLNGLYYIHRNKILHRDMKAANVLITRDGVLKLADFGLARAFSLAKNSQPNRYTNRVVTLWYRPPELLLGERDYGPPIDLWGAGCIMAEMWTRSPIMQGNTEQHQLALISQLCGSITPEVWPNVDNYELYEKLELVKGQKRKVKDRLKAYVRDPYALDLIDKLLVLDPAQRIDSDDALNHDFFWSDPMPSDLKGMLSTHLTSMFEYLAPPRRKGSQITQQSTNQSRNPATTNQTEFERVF

| SMILES | IC50 (HL-60) | IC50 (U-937) | IC50 [1] | IC50 (Kasumi 1) | IC50 [2] | IC50 (Histone deacetylase) |
| --- | --- | --- | --- | --- | --- | --- |
| O=C(CCCCCN1CCC(NC(=O)c2n[nH]cc2NC(=O)c2c(Cl)cccc2Cl)CC1)NO | 1.75 µM | 1.84 µM | 3.02 µM | 6.19 µM | < 0.1 µM |  |
| O=C(CNC(=O)c1ccc(NC(=O)c2n[nH]cc2NC(=O)c2c(F)cccc2F)cc1)NO | > 10 µM | > 10 µM | > 10 µM | > 10 µM | < 0.1 µM |  |
| O=C(CCCCN1CCC(NC(=O)c2n[nH]cc2NC(=O)c2c(Cl)cccc2Cl)CC1)NO | 1.1 µM | 1.83 µM | 2.32 µM | 3.72 µM | < 0.1 µM |  |
| Nc1cc(Br)c(Br)cc1NC(=O)c1ccc(NC(=O)c2n[nH]cc2NC(=O)c2c(F)cccc2F)cc1 | > 10 µM | > 10 µM | > 10 µM | > 10 µM | < 0.1 µM |  |
| O=C(CCN1CCC(NC(=O)c2n[nH]cc2NC(=O)c2c(F)cccc2F)CC1)NO | 4.45 µM | > 10 µM | 9.28 µM | 4.8 µM | < 0.1 µM |  |
| O=C(CCCCCN1CCC(NC(=O)c2n[nH]cc2NC(=O)c2c(F)cccc2F)CC1)NO | 1.81 µM | > 10 µM | > 10 µM | > 10 µM | < 0.1 µM |  |
| O=C(CCCNC(=O)c1ccc(NC(=O)c2n[nH]cc2NC(=O)c2c(F)cccc2F)cc1)NO | > 10 µM | > 10 µM | > 10 µM | 5.6 µM | < 0.1 µM |  |
| Cc1cc(N)c(NC(=O)c2ccc(NC(=O)c3n[nH]cc3NC(=O)c3c(F)cccc3F)cc2)cc1C | > 10 µM | > 10 µM | 6.89 µM | > 10 µM | < 0.1 µM |  |
| O=C(CCCCNC(=O)c1ccc(NC(=O)c2n[nH]cc2NC(=O)c2c(Cl)cccc2Cl)cc1)NO | > 10 µM | 8.52 µM | > 10 µM | > 10 µM | < 0.1 µM |  |
| O=C(CCN1CCC(NC(=O)c2n[nH]cc2NC(=O)c2c(Cl)cccc2Cl)CC1)NO | 1.54 µM | 0.91 µM | 1.67 µM | 1.38 µM | < 0.1 µM |  |
| O=C(CCCCNC(=O)c1ccc(NC(=O)c2n[nH]cc2NC(=O)c2c(F)cccc2F)cc1)NO | > 10 µM | > 10 µM | > 10 µM | > 10 µM | < 0.1 µM |  |
| O=C(CCNC(=O)c1ccc(NC(=O)c2n[nH]cc2NC(=O)c2c(F)cccc2F)cc1)NO | > 10 µM | > 10 µM | 5.97 µM | 8.81 µM | < 0.1 µM |  |
| O=C(CCCNC(=O)c1n[nH]cc1NC(=O)c1c(Cl)cccc1Cl)NO | > 10 µM | > 10 µM | > 10 µM | > 10 µM | < 0.1 µM |  |
| O=C(CCCCCNC(=O)c1ccc(NC(=O)c2n[nH]cc2NC(=O)c2c(Cl)cccc2Cl)cc1)NO | > 10 µM | > 10 µM | > 10 µM | > 10 µM | < 0.1 µM |  |
| O=C(CCCCN1CCC(NC(=O)c2n[nH]cc2NC(=O)c2c(F)cccc2F)CC1)NO | 1.77 µM | 7.34 µM | 6.53 µM | 6.44 µM | < 0.1 µM |  |
| Cc1cc(N)c(NC(=O)c2ccc(NC(=O)c3n[nH]cc3NC(=O)c3c(Cl)cccc3Cl)cc2)cc1C | 1.02 µM | 1.14 µM | 2.56 µM | 0.93 µM | < 0.1 µM |  |
| O=C(CCCN1CCC(NC(=O)c2n[nH]cc2NC(=O)c2c(Cl)cccc2Cl)CC1)NO | 1.24 µM | 1.61 µM | 2.23 µM | 3.52 µM | < 0.1 µM |  |

| SMILES | IC50 (HL-60) | IC50 (U-937) | IC50 [1] | IC50 (Kasumi 1) | IC50 [2] | IC50 (Histone deacetylase) |
| --- | --- | --- | --- | --- | --- | --- |
| O=C(CCCNC(=O)c1ccc(NC(=O)c2n[nH]cc2NC(=O)c2c(Cl)cccc2Cl)cc1)NO | > 10 µM | > 10 µM | > 10 µM | > 10 µM | < 0.1 µM |  |
| O=C(CCCCNC(=O)c1n[nH]cc1NC(=O)c1c(Cl)cccc1Cl)NO | > 10 µM | > 10 µM | > 10 µM | > 10 µM | < 0.1 µM |  |
| O=C(CCCN1CCC(NC(=O)c2n[nH]cc2NC(=O)c2c(F)cccc2F)CC1)NO | 2.55 µM | > 10 µM | 6.31 µM | > 10 µM | < 0.1 µM |  |
| Nc1cc(Cl)c(Cl)cc1NC(=O)c1ccc(NC(=O)c2n[nH]cc2NC(=O)c2c(F)cccc2F)cc1 | > 10 µM | 6.8 µM | 7.28 µM | 7.79 µM | < 0.1 µM |  |
| O=C(CCCCCCN1CCC(NC(=O)c2n[nH]cc2NC(=O)c2c(F)cccc2F)CC1)NO | 1.01 µM | 1.44 µM | 1.08 µM | 1.96 µM | < 0.1 µM |  |
| O=C(CCNC(=O)c1ccc(NC(=O)c2n[nH]cc2NC(=O)c2c(Cl)cccc2Cl)cc1)NO | > 10 µM | > 10 µM | > 10 µM | > 10 µM | < 0.1 µM |  |
| O=C(CCCCCNC(=O)c1n[nH]cc1NC(=O)c1c(Cl)cccc1Cl)NO | > 10 µM | > 10 µM | > 10 µM | > 10 µM | < 0.1 µM |  |
| O=C(CCCCCCN1CCC(NC(=O)c2n[nH]cc2NC(=O)c2c(Cl)cccc2Cl)CC1)NO | 1.09 µM | 0.47 µM | 3.09 µM | 6.41 µM | < 0.1 µM | < 1 µM |
| O=C(CCNC(=O)c1n[nH]cc1NC(=O)c1c(Cl)cccc1Cl)NO | 10 µM | > 10 µM | > 10 µM | 3.87 µM | < 0.1 µM |  |
| O=C(CN1CCC(NC(=O)c2n[nH]cc2NC(=O)c2c(Cl)cccc2Cl)CC1)NO | 1.16 µM | 0.94 µM | 1.54 µM | 1.54 µM | < 0.1 µM |  |
| O=C(CNC(=O)c1n[nH]cc1NC(=O)c1c(Cl)cccc1Cl)NO | > 10 µM | > 10 µM | > 10 µM | > 10 µM | < 0.1 µM |  |
| O=C(CCCCCNC(=O)c1ccc(NC(=O)c2n[nH]cc2NC(=O)c2c(F)cccc2F)cc1)NO | > 10 µM | > 10 µM | > 10 µM | > 10 µM | < 0.1 µM |  |
| Nc1cc(Cl)c(Cl)cc1NC(=O)c1ccc(NC(=O)c2n[nH]cc2NC(=O)c2c(Cl)cccc2Cl)cc1 | 9.76 µM | 5.92 µM | 5.54 µM | 8.42 µM | < 0.1 µM |  |
| Nc1cc(Br)c(Br)cc1NC(=O)c1ccc(NC(=O)c2n[nH]cc2NC(=O)c2c(Cl)cccc2Cl)cc1 | 6.86 µM | 9.13 µM | 4.56 µM | 6.92 µM | < 0.1 µM |  |
| Nc1ccccc1NC(=O)c1ccc(NC(=O)c2n[nH]cc2NC(=O)c2c(F)cccc2F)cc1 | > 10 µM | 5.6 µM | 2.65 µM | 3.1 µM | < 0.1 µM |  |
| O=C(Nc1ccccc1)c1ccc(NC(=O)c2n[nH]cc2NC(=O)c2c(Cl)cccc2Cl)cc1 | 5.84 µM | 4.68 µM | 3.27 µM | 3.83 µM | < 0.1 µM |  |
